Data published in patent publication EP1914304A1 (priority 1998, dated 1999).

Columns and labels:
[1] = system: E. coli KY895 harboring HSV-1 TK mutant TKF 105 (Leu-170 to Ile); assay: Negative selection on AZT-selection medium; assay type: cell-based; details: 0.05 µg/mL of AZT, 1.0 µg/mL of dT
From the text: (§1) This screen is based upon the premise that mutants with increased ability to phosphorylate AZT relative to dT would be unable to form colonies on the AZT-selection medium. In particular, the product, AZT monophosphate would be further phosphorylated by the host cell's nonspecific nucleotide kinases, or possibly by the mutant TK, incorporated into bacterial DNA by host DNA polymerases, terminate DNA synthesis, and thus prevent replication of the host chromosome.
(§2) Briefly, the TK mutants were first grown as individual colonies on TK-selection medium (1.0 µg/mL of dT), and then replica plated onto AZT-selection medium (0.05 µg/mL of AZT, 1.0 µg/mL of dT). All other components in the AZT-selection medium were the same as the TK-selection medium.

[2] = system: E. coli KY895 harboring HSV-1 TK mutant TKI 208 (Leu-170 to Val); assay: Negative selection on AZT-selection medium; assay type: cell-based; details: 0.05 µg/mL of AZT, 1.0 µg/mL of dT
From the text: as §1, §2

[3] = system: Rat C6 cells expressing TK mutant 30; assay: Rat C6 kill curves with GCV and ACV; assay type: cell-based; details: Table VIII
From the text: (§3) The seven mutants were subcloned into the mammalian expression vector, pREP8D7:dualGFP. This vector contains a constitutive metallothionin promoter, which drives the expression of green flourescent protein (GFP), and an RSV LTR promoter, which stimulated expression of the TK mutants. The vector also contains a histidinol resistance gene for selection of transformants. Purified vector DNA of these constructs was used to transfect BHK tk- cells by electroporation. The transfectants were selected by resistance to histidinol and sorted using FACS analysis for GFP expression. Pools of transfectants were then assayed for sensitivity to GCV or ACV over a range of prodrug doses. […] Table VIII illustrates the IC50 values from Rat C6 kill curves with the SR11, SR26, and SR39 mutants.

[4] = system: Rat C6 cells expressing TK mutant 411; assay: Rat C6 kill curves with GCV and ACV; assay type: cell-based; details: Table VIII
From the text: as §3

[5] = system: Rat C6 cells expressing TK mutant 75; assay: Rat C6 kill curves with GCV and ACV; assay type: cell-based; details: Table VIII
From the text: as §3

[6] = system: Rat C6 cells expressing TK mutant SR11; assay: Rat C6 kill curves with GCV and ACV; assay type: cell-based; details: Table VIII
From the text: as §3

[7] = system: Rat C6 cells expressing TK mutant SR26; assay: Rat C6 kill curves with GCV and ACV; assay type: cell-based; details: Table VIII
From the text: as §3

[8] = system: Rat C6 cells expressing TK mutant SR39; assay: Rat C6 kill curves with GCV and ACV; assay type: cell-based; details: Table VIII
From the text: as §3

[9] = system: Rat C6 cells expressing wild-type TK; assay: Rat C6 kill curves with GCV and ACV; assay type: cell-based; details: Table VIII
From the text: as §3

[10] = system: rat C6 glioblastoma cells transfected with TK mutant 30, subcutaneous tumor; assay: Mouse xenograft tumor model with prodrug treatment; assay type: in vivo, Nude mice; details: prodrug twice a day for 5 days from day 5; Figures 32-34
Method: (§4) Rat C6 glioblastoma cells were transfected with the stable expression vector pREP8D7:dualGFP as described above containing various TK mutants. […] Experiments were carried out to establish prodrug dosing levels for tumor ablation and efficacy of therapy. Nude mice (JAX Labs, Bar Harbor, Maine) were injected subcutaneously with 0.5 x10^6 transfected rat C6 cells. After 5 days, prodrugs (ACV and GCV) were administered twice a day for a further 5 days. Prodrug was given at either of two concentrations (shown as mg/kg). During this period and for an additional 6 days, tumor size was monitored by caliper measurement every other day. At the end of the period, mice were sacrificed and the tumors excised and weighed.

[11] = system: rat C6 glioblastoma cells transfected with TK mutant SR39, subcutaneous tumor; assay: Mouse xenograft tumor model with prodrug treatment; assay type: in vivo, Nude mice; details: prodrug twice a day for 5 days from day 5; Figures 32-34
Method: as §4

| SMILES | colony formation on AZT-selection medium [1] | colony formation on AZT-selection medium [2] | IC50 [3] | IC50 [4] | IC50 [5] | IC50 [6] | IC50 [7] | IC50 [8] | IC50 [9] | tumor reduction (tumor diameter, final tumor weight) [10] | tumor reduction (tumor diameter, final tumor weight) [11] |
| --- | --- | --- | --- | --- | --- | --- | --- | --- | --- | --- | --- |
| Cc1cn([C@H]2C[C@H](N=[N+]=[N-])[C@@H](CO)O2)c(=O)[nH]c1=O [AZT, 3' azido-3' thymidine] | not on the AZT-selection medium | not on the AZT-selection medium | – | – | – | – | – | – | – | – | – |
| Nc1nc2c(ncn2COCCO)c(=O)[nH]1 [acyclovir] | – | – | 0.26 µM | 14 µM | > 20 µM | 6 µM | 0.76 µM | 0.11 µM | > 20 µM | significant tumor reduction | significant tumor reduction |
